From patent US20260083865A1, “PROSTATE SPECIFIC MEMBRANE ANTIGEN (PSMA) LIGANDS AND USE THEREOF” (priority 2022, published 2026)
Numbered stars: 1 amine (or outer) side, 2 acyl side, 3 side chain; on linkers, the order of the positions; unused ones are H or OH. Bridge positions count the residues as written; N and C are the ends. Square brackets hold non-standard residues; d marks the D form. Peptide text beside a SMILES is read from it. * marks the point of attachment. DOTA = O=C(O)CN1CCN(CC(=O)O)CCN(CC(=O)*)CCN(CC(=O)O)CC1; Phe(3-CN) = N#Cc1cccc(C[C@H](N)C(=O)O)c1; Phe(4-Cl) = N[C@@H](Cc1ccc(Cl)cc1)C(=O)O; Arg(Me) = CNC(=N)NCCC[C@H](N)C(=O)O; NMeT = CN[C@H](C(=O)O)[C@@H](C)O; 4Pal = N[C@@H](Cc1ccncc1)C(=O)O; X1 = O=C(CC1CCN([*:1])CC1)[*:2]; Lys(Me) = CNCCCC[C@H](N)C(=O)O; Tle = CC(C)(C)[C@H](N)C(=O)O; 4Amb = NCc1ccc(C(=O)O)cc1; Nle = CCCC[C@H](N)C(=O)O; NHCH2CH2NHMe = CNCCN*; Aib = CC(C)(N)C(=O)O

Columns and labels:
[1] = biological target: T1, PSMA-expressing C4-2 cells (Homo sapiens, UniProt Q04609); assay: FACS binding assay (competition with 50 nM PSM-0183); conditions: pIC50 category of FACS binding, C4-2 cells; read-out: pIC50 [C4-2] CAT (converted)
T1 construct: PSMA-expressing C4-2 cells (ATCC, Cat. No. CRL-3314) were cultured in RPMI-1640; host or cells: C4-2 cells
T1 sequence (Q04609 whole entry): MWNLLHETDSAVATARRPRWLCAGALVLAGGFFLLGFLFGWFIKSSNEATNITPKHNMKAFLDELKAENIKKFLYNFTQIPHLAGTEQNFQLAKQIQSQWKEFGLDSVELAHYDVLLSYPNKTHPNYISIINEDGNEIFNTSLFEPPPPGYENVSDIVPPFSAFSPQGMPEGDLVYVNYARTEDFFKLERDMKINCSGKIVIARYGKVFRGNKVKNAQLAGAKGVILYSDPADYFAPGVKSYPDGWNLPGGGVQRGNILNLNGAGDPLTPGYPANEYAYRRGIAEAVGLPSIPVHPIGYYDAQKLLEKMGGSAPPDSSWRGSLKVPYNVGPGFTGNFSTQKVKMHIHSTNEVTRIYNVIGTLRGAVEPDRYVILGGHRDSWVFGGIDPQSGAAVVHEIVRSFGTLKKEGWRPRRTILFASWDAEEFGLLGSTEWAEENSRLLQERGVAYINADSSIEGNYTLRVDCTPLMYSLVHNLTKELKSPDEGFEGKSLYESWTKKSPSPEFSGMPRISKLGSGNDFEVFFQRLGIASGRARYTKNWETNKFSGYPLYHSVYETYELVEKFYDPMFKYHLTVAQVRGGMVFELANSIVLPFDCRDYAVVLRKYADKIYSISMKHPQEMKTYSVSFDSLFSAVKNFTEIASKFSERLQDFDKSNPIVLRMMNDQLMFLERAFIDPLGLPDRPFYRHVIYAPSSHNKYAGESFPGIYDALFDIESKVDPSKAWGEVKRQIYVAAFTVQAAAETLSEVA
How it was run: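 Competition format: fluorescent tracer PSM-0183 (50 nM) displaced from PSMA on C4-2 cells by a test compound titration over 1 h at 4 °C. Bound tracer was quantified as flow-cytometric AF488 median fluorescence after washing. Four-parameter logistic fits of MFI data gave IC50 and pIC50.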

[2] = biological target: T2, Fc-fusion protein of human PSMA (hPSMA-Fc) (Homo sapiens, UniProt Q04609); assay: Surface plasmon resonance assay (Biacore T200, single cycle kinetic); type: binding; conditions: pKD category for PSMA SPR activity assay, hPSMA-Fc, 25° C.; read-out: pKD CAT (converted)
T2 construct: purchased Acro Biosystems PSA-H5264
T2 sequence (Q04609 44-750 limits assumed): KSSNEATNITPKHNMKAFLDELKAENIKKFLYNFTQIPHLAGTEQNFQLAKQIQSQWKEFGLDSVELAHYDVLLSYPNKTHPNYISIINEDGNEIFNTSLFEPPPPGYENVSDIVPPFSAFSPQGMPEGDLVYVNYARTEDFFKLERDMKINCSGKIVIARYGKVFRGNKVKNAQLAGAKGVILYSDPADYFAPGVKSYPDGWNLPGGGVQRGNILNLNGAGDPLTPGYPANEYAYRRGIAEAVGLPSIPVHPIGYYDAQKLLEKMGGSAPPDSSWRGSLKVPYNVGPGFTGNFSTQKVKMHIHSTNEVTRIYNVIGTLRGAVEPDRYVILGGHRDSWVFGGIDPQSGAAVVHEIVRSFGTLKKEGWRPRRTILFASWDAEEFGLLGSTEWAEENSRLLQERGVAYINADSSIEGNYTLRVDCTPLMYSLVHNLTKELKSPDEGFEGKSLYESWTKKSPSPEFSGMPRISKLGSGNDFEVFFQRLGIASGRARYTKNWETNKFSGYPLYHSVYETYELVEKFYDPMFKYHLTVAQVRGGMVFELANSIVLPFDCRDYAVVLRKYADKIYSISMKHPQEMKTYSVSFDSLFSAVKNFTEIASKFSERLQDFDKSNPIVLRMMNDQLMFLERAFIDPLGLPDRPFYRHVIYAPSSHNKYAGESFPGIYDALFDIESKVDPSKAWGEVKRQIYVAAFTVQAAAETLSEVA
How it was run: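 KD, expressed as pKD, came from 1:1 Langmuir fits of reference- and buffer-blank-subtracted SPR data. The runs were single-cycle kinetics at 25° C in HBST/0.1% DMSO over human PSMA-Fc, captured to ~1000 RU on a peptide-coated CM5 surface and regenerated with 10 mM glycine pH 1.5.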

Row | SMILES | IC50 [1] | Kd [2]
1 | CC(=O)N[C@H](C(=O)NC(C)(C)C(=O)N[C@@H](Cc1ccccc1)C(=O)N[C@H]1CSSC[C@@H](C(=O)N[C@H](C(=O)N[C@@H](CC(C)C)C(N)=O)C(C)(C)C)NC(=O)[C@H](CC(N)=O)NC(=O)C(C)(C)NC(=O)[C@H](CCCNC(=N)N)NC(=O)[C@H](CCCCN)NC1=O)[C@@H](C)O [PSM-0453, Ac-Thr-Aib-Phe-[Cys-Lys-Arg-Aib-Asn-Cys]-Tle-Leu-NH2] (Ac-T[Aib]FCKR[Aib]NC[Tle]L-NH2; disulfide 4-9) | < 200 nM | < 12.6 nM
2 | C[C@@H](O)[C@H](NC(=O)[C@@H](NC(=O)[C@@H]1CSSC[C@H](NC(=O)[C@H](Cc2ccncc2)NC(=O)C(C)(C)NC(=O)[C@@H](NC(=O)CC2CCN(C(=O)CN3CCN(CC(=O)O)CCN(CC(=O)O)CCN(CC(=O)O)CC3)CC2)[C@@H](C)O)C(=O)N[C@@H](CCCCN)C(=O)N[C@@H](CCCNC(=N)N)C(=O)NC(C)(C)C(=O)N[C@@H](CC(N)=O)C(=O)N1)C(C)(C)C)C(N)=O [PSM-0454, DOTA-Cmp-Thr-Aib-Ppa-[Cys-Lys-Cit-Aib-Asn-Cys]-Tle-Thr-NH2] ({DOTA}-[X1]T[Aib][4Pal]CKR[Aib]NC[Tle]T-NH2; disulfide 5-10) | 1260 to 3160 nM | 126 to 501 nM
3 | C[C@H](NC(=O)[C@H]([C@@H](C)O)N(C)C(=O)CC1CCN(C(=O)CN2CCN(CC(=O)O)CCN(CC(=O)O)CCN(CC(=O)O)CC2)CC1)C(=O)N[C@@H](Cc1ccc(Cl)cc1)C(=O)N[C@H]1CSSC[C@@H](C(=O)N[C@H](C(=O)N[C@H](C(N)=O)[C@@H](C)O)C(C)(C)C)NC(=O)[C@H](CC(N)=O)NC(=O)C(C)(C)NC(=O)[C@H](CCCNC(=N)N)NC(=O)[C@H](CCCCN)NC1=O [PSM-0455, DOTA-Cmp-Nmt-Ala-Pcf-[Cys-Lys-Arg-Aib-Asn-Cys]-Tle-Thr-NH2] ({DOTA}-[X1][NMeT]A[Phe(4-Cl)]CKR[Aib]NC[Tle]T-NH2; disulfide 5-10) | 200 to 1260 nM | 126 to 501 nM
4 | CC(C)(NC(=O)c1ccc(CNC(=O)CN2CCN(CC(=O)O)CCN(CC(=O)O)CCN(CC(=O)O)CC2)cc1)C(=O)N[C@@H](Cc1ccccc1)C(=O)N[C@H]1CSSC[C@@H](C(=O)N[C@H](C(N)=O)C(C)(C)C)NC(=O)[C@H](CC(N)=O)NC(=O)C(C)(C)NC(=O)[C@H](CCCNC(=N)N)NC(=O)[C@H](CCCCN)NC1=O [PSM-0458, DOTA-Pamb-Aib-Phe-[Cys-Lys-Arg-Aib-Asn-Cys]-Tle-NH2] ({DOTA-4Amb}-[Aib]FCKR[Aib]NC[Tle]-NH2; disulfide 3-8) | < 200 nM | 12.6 to 126 nM
5 | CNCCCC[C@@H]1NC(=O)[C@@H](NC(=O)[C@H](Cc2cccc(C#N)c2)NC(=O)C(C)(C)NC(=O)[C@@H](NC(=O)CC2CCN(C(=O)CN3CCN(CC(=O)O)CCN(CC(=O)O)CCN(CC(=O)O)CC3)CC2)[C@@H](C)O)CSSC[C@@H](C(=O)N[C@H](C(N)=O)C(C)(C)C)NC(=O)[C@H](CC(N)=O)NC(=O)C(C)(C)NC(=O)[C@H](CCCNC(=N)NC)NC1=O [PSM-0459, DOTA-Cmp-Thr-Aib-Mnf-[Cys-Lys(Me)-Arg(Me)-Aib-Asn-Cys]-Tle-NH2] ({DOTA}-[X1]T[Aib][Phe(3-CN)]C[Lys(Me)][Arg(Me)][Aib]NC[Tle]-NH2; disulfide 5-10) | 200 to 1260 nM | 12.6 to 126 nM

Further lines, results first:

Row | IC50 [1] | Kd [2] | SMILES
6 | < 200 nM | 12.6 to 126 nM | CNCCNC(=O)[C@@H](NC(=O)[C@@H]1CSSC[C@H](NC(=O)[C@H](Cc2ccc(Cl)cc2)NC(=O)C(C)(C)NC(=O)[C@@H](NC(=O)CC2CCN(C(=O)CN3CCN(CC(=O)O)CCN(CC(=O)O)CCN(CC(=O)O)CC3)CC2)[C@@H](C)O)C(=O)N[C@@H](CCCCN)C(=O)N[C@@H](CCCNC(=N)N)C(=O)NC(C)(C)C(=O)N[C@@H](CC(N)=O)C(=O)N1)C(C)(C)C [PSM-0456, DOTA-Cmp-Thr-Aib-Pcf-[Cys-Lys-Arg-Aib-Asn-Cys]-Tle-en(Me)] ({DOTA}-[X1]T[Aib][Phe(4-Cl)]CKR[Aib]NC[Tle]-NHCH2CH2NHMe; disulfide 5-10)
7 | < 200 nM | 12.6 to 126 nM | CCCC[C@H](NC(=O)[C@@H]1CSSC[C@H](NC(=O)[C@H](Cc2ccccc2)NC(=O)[C@H](C)NC(=O)[C@@H](NC(C)=O)[C@@H](C)O)C(=O)N[C@@H](CCCCN)C(=O)N[C@@H](CCCNC(=N)N)C(=O)N2CCC[C@H]2C(=O)N[C@@H](CC(N)=O)C(=O)N1)C(=O)N[C@H](C(=O)N[C@@H](CC(=O)O)C(N)=O)[C@@H](C)O [PSM-0460, Ac-Thr-Ala-Phe-[Cys-Lys-Arg-Pro-Asn-Cys]-Nle-Thr-Asp-NH2] (Ac-TAFCKRPNC[Nle]TD-NH2; disulfide 4-9)
